Tests used:
KCNQ2/KCNQ3 channels = KCNQ2/KCNQ3 channels (Homo sapiens, UniProt O43525+O43526, N780T); conditions: 200 μM Linopirdine; cited from earlier work
KCNQ3/KCNQ4 = molecular target: T1, KCNQ3/KCNQ4 (Homo sapiens, UniProt O43525+P56696, H455Q); experiment: Two-electrode voltage clamp of KCNQ3+KCNQ4 co-expression currents in Xenopus oocytes; assay type: cell-based; conditions: 200 μM Linopirdine
T1 construct: A complete cDNA was assembled and cloned into the oocyte expression vector PTLN; expressed in transfected cells; host or cells: Xenopus oocytes (cRNAs co-injected 1:1)
T1 sequence (P56696 1-695 H455Q): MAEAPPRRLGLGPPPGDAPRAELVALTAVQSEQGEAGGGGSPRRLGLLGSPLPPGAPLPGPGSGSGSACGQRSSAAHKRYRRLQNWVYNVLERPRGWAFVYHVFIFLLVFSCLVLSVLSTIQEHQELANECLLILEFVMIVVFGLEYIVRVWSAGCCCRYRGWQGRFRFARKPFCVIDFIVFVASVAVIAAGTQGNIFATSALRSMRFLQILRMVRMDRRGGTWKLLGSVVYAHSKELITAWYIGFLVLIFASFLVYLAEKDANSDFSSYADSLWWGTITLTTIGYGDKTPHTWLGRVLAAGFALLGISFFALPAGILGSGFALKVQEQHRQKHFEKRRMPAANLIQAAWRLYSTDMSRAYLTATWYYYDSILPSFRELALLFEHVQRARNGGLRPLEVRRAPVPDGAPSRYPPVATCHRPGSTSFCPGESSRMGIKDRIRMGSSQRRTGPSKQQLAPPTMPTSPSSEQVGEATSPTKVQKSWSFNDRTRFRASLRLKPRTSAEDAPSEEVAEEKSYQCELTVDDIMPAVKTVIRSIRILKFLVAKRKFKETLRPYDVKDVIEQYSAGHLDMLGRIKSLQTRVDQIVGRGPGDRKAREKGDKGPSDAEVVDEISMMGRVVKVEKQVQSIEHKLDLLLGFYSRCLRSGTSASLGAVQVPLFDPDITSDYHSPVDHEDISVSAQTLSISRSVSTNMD
T1 sequence (O43525 1-872): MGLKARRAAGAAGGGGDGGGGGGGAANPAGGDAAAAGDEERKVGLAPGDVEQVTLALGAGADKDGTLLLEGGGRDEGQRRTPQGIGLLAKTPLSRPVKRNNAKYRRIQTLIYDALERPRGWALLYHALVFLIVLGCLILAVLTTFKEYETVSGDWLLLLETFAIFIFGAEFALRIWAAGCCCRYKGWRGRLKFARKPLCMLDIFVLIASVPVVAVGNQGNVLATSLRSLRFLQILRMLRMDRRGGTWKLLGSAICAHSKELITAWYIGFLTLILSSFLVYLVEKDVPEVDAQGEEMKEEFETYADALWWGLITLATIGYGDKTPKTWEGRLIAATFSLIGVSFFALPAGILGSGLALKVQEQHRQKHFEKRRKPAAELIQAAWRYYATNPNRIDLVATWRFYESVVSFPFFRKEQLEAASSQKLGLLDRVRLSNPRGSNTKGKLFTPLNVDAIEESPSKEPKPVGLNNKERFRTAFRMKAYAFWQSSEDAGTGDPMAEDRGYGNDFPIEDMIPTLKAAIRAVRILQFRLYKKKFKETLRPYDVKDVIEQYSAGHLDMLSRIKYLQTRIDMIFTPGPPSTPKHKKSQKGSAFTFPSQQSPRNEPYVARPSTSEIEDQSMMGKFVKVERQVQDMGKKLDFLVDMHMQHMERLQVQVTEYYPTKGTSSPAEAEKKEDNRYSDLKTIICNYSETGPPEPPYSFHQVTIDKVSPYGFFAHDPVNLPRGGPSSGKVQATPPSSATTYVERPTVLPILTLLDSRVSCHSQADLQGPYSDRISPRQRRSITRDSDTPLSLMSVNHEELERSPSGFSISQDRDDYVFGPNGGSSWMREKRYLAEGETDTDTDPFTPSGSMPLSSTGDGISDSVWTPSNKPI
Protocol: (§1) KCNQ4 was expressed in Xenopus oocytes and its activity was investigated by two-electrode voltage clamping.
(§2) After linearization of the KCNQ4-containing PTLN vector with Hpal, capped cRNA was transcribed in vitro using the mMessage mMachine cRNA synthesis kit (Ambion). Usually 5-15 ng of cRNA were injected into Xenopus oocytes previously isolated by manual defolliculation and short collagenase treatment. In co-expression experiments cRNAs were injected at a 1:1 ratio. Oocytes were kept at 17° C. in modified Barth's solution (90 mM NaCl, 1 mM KCl, 0.41 mM CaCl2, 0.33 mM Ca(NO3)2, 0.82 mM MgSO4, 10 mM HEPES, 100 U penicillin-100 μg streptomycin/ml, pH 7.6).
(§3) Standard two-electrode voltage-clamp measurements were performed at room temperature 2-4 days after injection using a Turbotec 05 amplifier (npi instruments, Tamm, Germany) and pClamp 5.5 software (Axon Instruments). Currents were usually recorded in ND98 solution (see Table 2). Solutions for Na^+/K^+replacement experiments were prepared from an appropriate mixture of solution KD100 (100 mM KCl) and ND100 (100 mM NaCl) to yield the stated concentrations of Na^+and K^+. Linopirdine (RBI, Natick, Mass.) was prepared as a 100 mM stock solution in DMSO and added to a final concentration of 200 μM to ND98.

KCNQ4 = molecular target: T2, KCNQ4 (Homo sapiens, UniProt P56696, H455Q); experiment: Two-electrode voltage clamp of KCNQ4 currents in Xenopus oocytes; assay type: cell-based; conditions: 200 μM Linopirdine
T2 construct: A complete cDNA was assembled and cloned into the oocyte expression vector PTLN; expressed in transfected cells; host or cells: Xenopus oocytes (cRNA injection)
T2 sequence (P56696 1-695 H455Q): T1 sequence (P56696 1-695 H455Q)
Protocol: as §1, §2, §3

KCNQ2/KCNQ3 channels, sequence (O43526 1-844 isoform O43526-3 N752T, one chain of several): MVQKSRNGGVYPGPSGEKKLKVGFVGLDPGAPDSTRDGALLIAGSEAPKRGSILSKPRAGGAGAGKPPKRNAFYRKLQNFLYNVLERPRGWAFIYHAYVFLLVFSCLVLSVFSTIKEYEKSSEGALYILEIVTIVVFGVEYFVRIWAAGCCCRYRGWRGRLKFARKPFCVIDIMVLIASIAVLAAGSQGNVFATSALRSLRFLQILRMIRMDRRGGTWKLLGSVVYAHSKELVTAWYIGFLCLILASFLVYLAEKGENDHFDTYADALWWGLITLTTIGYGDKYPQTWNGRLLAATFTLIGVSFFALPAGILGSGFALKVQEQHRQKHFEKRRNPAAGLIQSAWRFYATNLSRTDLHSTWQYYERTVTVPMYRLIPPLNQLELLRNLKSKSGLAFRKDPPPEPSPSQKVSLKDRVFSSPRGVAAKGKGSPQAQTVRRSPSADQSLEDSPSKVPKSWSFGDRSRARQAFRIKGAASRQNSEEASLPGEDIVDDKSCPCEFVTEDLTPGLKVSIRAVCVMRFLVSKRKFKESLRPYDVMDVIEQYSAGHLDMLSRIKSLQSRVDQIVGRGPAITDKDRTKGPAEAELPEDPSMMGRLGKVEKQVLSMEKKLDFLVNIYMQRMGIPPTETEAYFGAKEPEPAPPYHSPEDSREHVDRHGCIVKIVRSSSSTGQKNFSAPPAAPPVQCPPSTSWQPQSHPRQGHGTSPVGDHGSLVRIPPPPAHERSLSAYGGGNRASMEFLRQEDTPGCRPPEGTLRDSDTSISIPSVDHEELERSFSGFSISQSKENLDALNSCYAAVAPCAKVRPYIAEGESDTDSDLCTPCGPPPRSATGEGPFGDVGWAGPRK

time to steady-state inhibition of KCNQ3+KCNQ4 currents after addition (KCNQ3/KCNQ4): ~3 min
inhibition of KCNQ3/KCNQ4 co-expression current (KCNQ3/KCNQ4; currents measured at +40 mV, Xenopus oocytes, ND98): ≈ 75%
time to steady-state inhibition of KCNQ4 currents after addition (KCNQ4): ~1 min
inhibition at 200 µM (KCNQ4; currents measured at +40 mV, Xenopus oocytes, ND98, read-out: inhibition of KCNQ4 current): ~30%
Structure (SMILES): O=C1N(c2ccccc2)c2ccccc2C1(Cc1ccncc1)Cc1ccncc1 [Linopirdine, 1,3-dihydro-1-phenyl-3,3-bis(4-pyridylmethyl)-2H-indol-2-one]
inhibition of KCNQ2/KCNQ3 channels (KCNQ2/KCNQ3 channels): nearly completely inhibits

Source: patent US7378497B2, “Potassium channels and genes encoding these potassium channels” (NeuroSearch A/S, priority 1999, dated 2008)
